Measurements taken from the supplement of paper PMC10307832.

Assays:
Test in all cases: relative viability (nuclei count vs DMSO), 5 days (fraction); higher = more cells survive
[1] = compound: C1=CC=C(C(=C1)C2=CC=C(C=C2)C3=CSC4=C3C(=C(C(=O)N4)C#N)O)O + N=C(N)NC(=N)NCCc1ccccc1 [Phenformin] (partner 250 µM)
Procedure, shortened: (§1)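 Lung cancer cell lines were seeded in 1536-well plates and dosed by pin tool the next day, with either a single drug or a fixed anchor-drug dose combined with five library-drug doses (not always all listed) spaced in √10 steps. Five days later, one step fixed the cells and stained their nuclei (final 0.05% Triton X-100, 1% formaldehyde, 1 ug/ml Hoechst), and nuclei were counted on 4× images. Relative viability is the nuclei count in treated wells divided by the count in vehicle wells, and each value is the median of duplicate plates.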

[2] = compound: C1=CC=C(C(=C1)C2=CC=C(C=C2)C3=CSC4=C3C(=C(C(=O)N4)C#N)O)O + CC1(C)CCC(c2ccc(Cl)cc2)=C(CN2CCN(c3ccc(C(=O)NS(=O)(=O)c4ccc(N[C@H](CCN5CCOCC5)CSc5ccccc5)c(S(=O)(=O)C(F)(F)F)c4)cc3)CC2)C1 [Navitoclax] (partner 0.5 µM)
Procedure, shortened: as §1

[3] = compound: CC1=CN2C(=O)C=C(N=C2C(=C1)C(C)NC3=CC=CC=C3)N4CCOCC4 [TGX 221] + CC(=O)Nc1cccc(-n2c(=O)n(C3CC3)c(=O)c3c(Nc4ccc(I)cc4F)n(C)c(=O)c(C)c32)c1 [Trametinib] (partner 0.02 µM)
Procedure, shortened: as §1

[4] = compound: CC1=CN2C(=O)C=C(N=C2C(=C1)C(C)NC3=CC=CC=C3)N4CCOCC4 [TGX 221] + CCNC(=O)c1noc(-c2cc(C(C)C)c(O)cc2O)c1-c1ccc(CN2CCOCC2)cc1 [Luminespib] (partner 0.01 µM)
Procedure, shortened: as §1

Cell Line | relative viability ([1]; first compound 0.08 µM) | relative viability ([1]; first compound 0.253 µM) | relative viability ([1]; first compound 0.8 µM) | relative viability ([1]; first compound 2.53 µM) | relative viability ([1]; first compound 8 µM) | relative viability ([2]; first compound 0.08 µM) | relative viability ([2]; first compound 0.253 µM) | relative viability ([2]; first compound 0.8 µM) | relative viability ([2]; first compound 2.53 µM) | relative viability ([2]; first compound 8 µM) | relative viability ([3]; first compound 0.08 µM) | relative viability ([3]; first compound 0.253 µM) | relative viability ([3]; first compound 0.8 µM) | relative viability ([3]; first compound 2.53 µM) | relative viability ([3]; first compound 8 µM) | relative viability ([4]; first compound 0.08 µM) | relative viability ([4]; first compound 0.253 µM) | relative viability ([4]; first compound 0.8 µM) | relative viability ([4]; first compound 2.53 µM) | relative viability ([4]; first compound 8 µM)
201T | 0.335 | 0.451 | 0.46 | 0.462 | 0.434 | 1.25 | 1.18 | 1.19 | 1.18 | 1.26 | 0.704 | 0.728 | 0.703 | 0.703 | 0.697 | 1.09 | 1.04 | 1.13 | 0.979 | 0.871
A549 | 0.124 | 0.184 | 0.123 | 0.192 | 0.238 | 1.37 | 1.44 | 1.28 | 1.28 | 1.04 |  |  |  |  |  |  |  |  |  | 
A-427 | 0.234 | 0.313 | 0.315 | 0.328 | 0.31 | 0.999 | 0.951 | 1.01 | 0.957 | 1.02 | 0.686 | 0.747 | 0.771 | 0.627 | 0.7 | 0.892 | 0.82 | 0.863 | 0.843 | 0.861
ABC-1 | 0.241 | 0.274 | 0.241 | 0.259 | 0.239 |  |  |  |  |  |  |  |  |  |  | 0.477 |  | 0.622 | 0.767 | 0.484
BEN | 0.282 | 0.289 | 0.265 | 0.278 | 0.274 | 0.0583 | 0.07 | 0.0922 | 0.0562 | 0.063 | 1.03 | 0.969 | 0.93 | 0.998 | 0.891 | 0.26 | 0.234 | 0.4 | 0.378 | 0.332
CAL-12T | 0.566 | 0.668 | 0.593 | 0.575 | 0.547 |  | 1.23 | 1.22 | 1.45 | 1.06 | 0.272 | 0.299 | 0.316 | 0.33 | 0.325 | 0.644 | 0.206 | 0.244 | 0.295 | 0.257
COR-L23 | 0.383 | 0.467 | 0.464 | 0.467 | 0.372 | 1.09 | 0.983 | 1.21 | 1.06 | 0.762 | 0.507 | 0.592 | 0.573 | 0.577 | 0.523 | 0.666 | 0.684 | 0.638 | 0.797 | 0.683
COR-L 105 | 0.47 | 0.649 | 0.348 | 0.401 | 0.402 | 0.951 | 0.776 | 0.829 | 0.704 | 0.784 | 0.501 | 0.431 | 0.482 | 0.43 | 0.419 | 0.952 | 0.792 | 0.663 | 0.654 | 0.579
Calu-6 |  |  |  |  |  | 0.831 | 0.981 | 1.03 | 0.843 | 0.785 |  |  |  |  |  |  |  |  |  | 
ChaGo-K-1 | 0.448 | 0.523 | 0.519 | 0.483 | 0.407 | 0.642 | 0.833 | 0.909 | 1 | 1.37 | 0.952 | 0.871 | 0.857 | 0.922 | 0.843 | 0.584 | 0.617 | 0.574 | 0.559 | 0.505
